Source: ChEMBL document CHEMBL3039007, “Structure-based identification of OATP1B1/3 inhibitors” (Mol Pharmacol, 2013)

Legend:
[1] = target: T1, Solute carrier organic anion transporter family member 1B1 (Homo sapiens, UniProt Q9Y6L6); conditions: chinese hamster, cho, 10 µM
T1 sequence (Q9Y6L6 whole entry): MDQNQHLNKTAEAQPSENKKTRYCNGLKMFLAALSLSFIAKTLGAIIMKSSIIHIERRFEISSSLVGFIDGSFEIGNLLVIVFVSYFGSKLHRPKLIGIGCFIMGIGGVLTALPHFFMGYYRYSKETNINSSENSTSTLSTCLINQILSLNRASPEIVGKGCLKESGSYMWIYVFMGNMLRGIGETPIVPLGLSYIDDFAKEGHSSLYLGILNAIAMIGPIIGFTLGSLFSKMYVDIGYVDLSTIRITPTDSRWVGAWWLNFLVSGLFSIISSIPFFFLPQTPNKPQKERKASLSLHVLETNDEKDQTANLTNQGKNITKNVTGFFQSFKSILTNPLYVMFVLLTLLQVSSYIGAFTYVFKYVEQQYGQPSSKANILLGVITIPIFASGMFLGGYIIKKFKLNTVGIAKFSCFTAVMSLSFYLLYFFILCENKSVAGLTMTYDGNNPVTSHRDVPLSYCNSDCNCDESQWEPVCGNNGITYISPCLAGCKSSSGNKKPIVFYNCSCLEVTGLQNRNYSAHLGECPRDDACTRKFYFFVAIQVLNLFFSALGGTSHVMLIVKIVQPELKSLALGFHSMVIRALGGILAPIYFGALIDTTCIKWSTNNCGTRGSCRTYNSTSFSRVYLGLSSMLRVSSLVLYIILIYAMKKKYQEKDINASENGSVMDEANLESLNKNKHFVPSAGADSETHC

[2] = target: T2, Solute carrier organic anion transporter family member 1B3 (Homo sapiens, UniProt Q9NPD5); conditions: chinese hamster, cho, 10 µM
T2 sequence (Q9NPD5 whole entry): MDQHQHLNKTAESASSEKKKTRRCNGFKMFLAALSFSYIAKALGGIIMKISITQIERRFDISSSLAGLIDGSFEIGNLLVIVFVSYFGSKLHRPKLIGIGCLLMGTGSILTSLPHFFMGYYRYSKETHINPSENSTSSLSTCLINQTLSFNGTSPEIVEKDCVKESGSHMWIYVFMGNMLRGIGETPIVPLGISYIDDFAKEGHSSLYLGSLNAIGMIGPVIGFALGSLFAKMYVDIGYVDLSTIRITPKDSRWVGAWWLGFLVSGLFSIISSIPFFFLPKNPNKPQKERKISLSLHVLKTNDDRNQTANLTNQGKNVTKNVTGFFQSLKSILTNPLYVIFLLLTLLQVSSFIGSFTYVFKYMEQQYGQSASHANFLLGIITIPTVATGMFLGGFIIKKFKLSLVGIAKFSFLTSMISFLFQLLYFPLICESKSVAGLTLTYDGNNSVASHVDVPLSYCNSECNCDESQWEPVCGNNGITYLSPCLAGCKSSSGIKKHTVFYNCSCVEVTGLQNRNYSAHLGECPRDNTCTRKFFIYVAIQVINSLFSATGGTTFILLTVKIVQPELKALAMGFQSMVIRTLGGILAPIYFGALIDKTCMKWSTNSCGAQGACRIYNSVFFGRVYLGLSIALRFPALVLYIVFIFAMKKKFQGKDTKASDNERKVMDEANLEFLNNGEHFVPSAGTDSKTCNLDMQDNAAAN

| Compound | residual activity [1] [%] | residual activity [2] [%] |
| --- | --- | --- |
| O=C1O[C@H](CO)[C@@H](O)[C@H](O)[C@H]1O [GLUCONOLACTONE] | 81.83 | 89.12 |
| Cl.N[C@H]1C(O)O[C@H](CO)[C@@H](O)[C@@H]1O (some centres undefined) [GLUCOSAMINE HYDROCHLORIDE] | 60.72 | 87.62 |
| N[C@@H](CCC(=O)N[C@@H](CS)C(=O)NCC(=O)O)C(=O)O [GLUTATHIONE] | 67.16 | 87.82 |
| CC(=O)O[C@@H]1[C@H]2CC[C@H]3[C@@](C)(O)[C@@H]4C[C@H](O)C(C)(C)[C@@]4(O)[C@H](O)C[C@@]13C[C@@]2(C)O [GRAYANOTOXIN I] | 79.68 | 95.98 |
| COC1=CC(=O)C[C@@H](C)[C@]12Oc1c(Cl)c(OC)cc(OC)c1C2=O [GRISEOFULVIN] | 65.59 | 97.62 |
| Cc1ccc(C(C)C)cc2c(C)ccc1-2 [GUAIAZULEN] | 49.11 | 50.28 |
| CC(=O)O.N=C(N)N/N=C/c1c(Cl)cccc1Cl [GUANABENZ ACETATE] | 90.81 | 87.6 |
| N=C(N)N [GUANIDINE] | 106.5 | 100 |
| COP(=S)(OC)SCn1nnc2ccccc2c1=O [GUTHION] | 109.1 | 101.8 |
| Cl.O=C(O)C1=CCCNC1 [GUVACINE HYDROCHLORIDE] | 115 | 108.7 |
| Cc1cc(O)c(C=O)c(O)c1C(=O)O [HAEMATOMMIC ACID] | 54.98 | 81.5 |
| COc1cc2c(cc1OC)C(=O)c1ccc(OC)c(OC)c1OCC(=O)C2 [HAEMATOXYLONE, TETRAMETHYL-] | 141.3 | 90.54 |
| O=C(O)c1ccc(S(=O)(=O)N(Cl)Cl)cc1 [HALAZONE] | 97.95 | 84.35 |
| CC1(C)O[C@@H]2C[C@H]3[C@@H]4CCC5=CC(=O)CC[C@]5(C)[C@@]4(F)[C@@H](O)C[C@]3(C)[C@]2(C(=O)CCl)O1 [HALCINONIDE] | 88.26 | 103.5 |
| O=C(CCCN1CCC(O)(c2ccc(Cl)cc2)CC1)c1ccc(F)cc1 [HALOPERIDOL] | 92.15 | 111.7 |
| COc1ccc2c3c([nH]c2c1)C(C)=NCC3 [HARMALINE] | 92.56 | 115.9 |
| CC1=NCCc2c1[nH]c1cc(O)ccc21.Cl [HARMALOL HYDROCHLORIDE] | 84.87 | 106.1 |
| Cc1nccc2c1[nH]c1ccccc12 [HARMAN] | 81.51 | 99.56 |
| COc1ccc2c(c1)[nH]c1c(C)nccc12 [HARMINE] | 105.3 | 101.7 |
| Cc1nccc2c1[nH]c1cc(O)ccc12.Cl [HARMOL HYDROCHLORIDE] | 91.2 | 124.7 |
| CC(=O)O[C@H]1CC[C@@]2(C)[C@@H](CC[C@@H]3[C@@H]2CC(=O)[C@]2(C)[C@@H]4[C@H](C[C@@H]32)O[C@]2(CC[C@@H](C)CO2)[C@H]4C)C1 [HECOGENIN ACETATE] | 103.5 | 102 |
| C[C@@H]1CC[C@@]2(OC1)O[C@H]1C[C@H]3[C@@H]4CC[C@@]5(C)C[C@@H](O)CC[C@]5(C)[C@H]4CC(=O)[C@]3(C)[C@H]1[C@@H]2C [HECOGENIN] | 41.82 | 105.1 |
